Measurements: patent publication US10736932B2, “Small molecule Ras inhibitors” (Ohio State Innovation Foundation, priority 2014, dated 2020)
Square brackets hold non-standard residues; d marks the D form. Side chains are listed from the residue outwards. Peptide text beside a SMILES is read from it. Phe(3,4-F2) = N[C@@H](Cc1ccc(F)c(F)c1)C(=O)O; Phe(4-F) = N[C@@H](Cc1ccc(F)cc1)C(=O)O; 2Nal = N[C@@H](Cc1ccc2ccccc2c1)C(=O)O; d2Nal = N[C@H](Cc1ccc2ccccc2c1)C(=O)O; Tle = CC(C)(C)[C@H](N)C(=O)O; dNle = CCCC[C@@H](N)C(=O)O
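Also: HTRF signal read after overnight incubation of the assay plate at 4 °C.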

What follows are compounds tested against T1, K-Ras / Raf RBD interaction (Homo sapiens, UniProt P01116, G12V) (assay: HTRF assay, inhibition of Ras-Raf RBD interaction). Conditions: not given.
T1 construct: The G12V mutant K-Ras (amino acids 1-185) was recombinantly fused; GST (N, cleaved yes); made in house; host or cells: Escherichia coli BL21
Assay type: binding
`C[C@H]1NC(=O)[C@H]([C@@H](C)O)NC(=O)[C@H](Cc2c[nH]c3ccccc23)NC(=O)[C@H](CCC(N)=O)NC(=O)[C@@H](CCCNC(=N)N)NC(=O)[C@H](Cc2ccc(F)cc2)NC(=O)[C@H](CCCNC(=N)N)NC(=O)[C@@H](Cc2ccc3ccccc3c2)NC(=O)[C@H](CCCNC(=N)N)NC(=O)[C@H](CCCNC(=N)N)NC(=O)[C@H](CCCNC(=N)N)NC1=O` [Cyclorasin 9A45, (Trp-Thr-ala-Arg-Arg-Arg-nal-Arg-Fpa-arg-Gln)] (cyclo(WT[dA]RRR[d2Nal]R[Phe(4-F)][dR]Q)) gave an IC50 of 36 ± 4 nM.
`CCCC[C@H]1NC(=O)[C@H](Cc2ccc(F)cc2)NC(=O)[C@H](CCCNC(=N)N)NC(=O)[C@@H](Cc2ccc3ccccc3c2)NC(=O)[C@H](CCCNC(=N)N)NC(=O)[C@H](CCCNC(=N)N)NC(=O)[C@H](CCCNC(=N)N)NC(=O)[C@@H](C)NC(=O)[C@H](C(C)(C)C)NC(=O)[C@H](Cc2c[nH]c3ccccc23)NC(=O)[C@H](CCC(N)=O)NC1=O` [Cyclorasin 9A46, (Trp-Tle-ala-Arg-Arg-Arg-nal-Arg-Fpa-nle-Gln)] (cyclo(W[Tle][dA]RRR[d2Nal]R[Phe(4-F)][dNle]Q)) was tested, and the IC50 was 130 ± 20 nM.
In the case of `CCCC[C@H]1NC(=O)[C@H](Cc2ccc(F)cc2)NC(=O)[C@H](CCCNC(=N)N)NC(=O)[C@@H](Cc2ccc3ccccc3c2)NC(=O)[C@H](CCCNC(=N)N)NC(=O)[C@H](CCCNC(=N)N)NC(=O)[C@H](CCCNC(=N)N)NC(=O)[C@@H](C(C)C)NC(=O)[C@H]([C@@H](C)O)NC(=O)[C@H](Cc2c[nH]c3ccccc23)NC(=O)[C@H](CCC(N)=O)NC1=O` [Cyclorasin 9A47, (Trp-Thr-val-Arg-Arg-Arg-nal-Arg-Fpa-nle-Gln)] (cyclo(WT[dV]RRR[d2Nal]R[Phe(4-F)][dNle]Q)), the IC50 is reported as 86 ± 11 nM.
For `CCCC[C@H]1NC(=O)[C@H](Cc2ccc(F)cc2)NC(=O)[C@H](CCCNC(=N)N)NC(=O)[C@@H](Cc2ccc3ccccc3c2)NC(=O)[C@H](CCCNC(=N)N)NC(=O)[C@H](CCCNC(=N)N)NC(=O)[C@H](CCCNC(=N)N)NC(=O)[C@@H](C(C)C)NC(=O)[C@H](C(C)(C)C)NC(=O)[C@H](Cc2c[nH]c3ccccc23)NC(=O)[C@H](CCC(N)=O)NC1=O` [Cyclorasin 9A48, (Trp-Tle-val-Arg-Arg-Arg-nal-Arg-Fpa-nle-Gln)] (cyclo(W[Tle][dV]RRR[d2Nal]R[Phe(4-F)][dNle]Q)), the IC50 was 48 ± 3 nM.
Work on `CCCC[C@H]1NC(=O)[C@H](Cc2ccc(F)cc2)NC(=O)[C@H](CCCNC(=N)N)NC(=O)[C@@H](Cc2ccc3ccccc3c2)NC(=O)[C@H](CCCNC(=N)N)NC(=O)[C@H](CCCNC(=N)N)NC(=O)[C@H](CCCNC(=N)N)NC(=O)[C@@H](C)NC(=O)[C@H]([C@@H](C)O)NC(=O)[C@H](Cc2ccc3ccccc3c2)NC(=O)[C@H](CCC(N)=O)NC1=O` [Cyclorasin 9A49, (Nal-Thr-ala-Arg-Arg-Arg-nal-Arg-Fpa-nle-Gln)] (cyclo([2Nal]T[dA]RRR[d2Nal]R[Phe(4-F)][dNle]Q)) yielded an IC50 of 100 ± 10 nM.
With `CCCC[C@H]1NC(=O)[C@H](Cc2ccc(F)c(F)c2)NC(=O)[C@H](CCCNC(=N)N)NC(=O)[C@@H](Cc2ccc3ccccc3c2)NC(=O)[C@H](CCCNC(=N)N)NC(=O)[C@H](CCCNC(=N)N)NC(=O)[C@@H](CCCNC(=N)N)NC(=O)[C@@H](C(C)C)NC(=O)[C@H](C(C)(C)C)NC(=O)[C@H](Cc2c[nH]c3ccccc23)NC(=O)[C@H](CCC(N)=O)NC1=O` [Cyclorasin 9A51, (Trp-Tle-val-arg-Arg-Arg-nal-Arg-Phe(3,4-difluoro)-nle-Gln)] (cyclo(W[Tle][dV][dR]RR[d2Nal]R[Phe(3,4-F2)][dNle]Q)) the IC50 was 15 nM.
For `CCCC[C@H]1NC(=O)[C@H](Cc2ccc(F)cc2)NC(=O)[C@H](CCCNC(=N)N)NC(=O)[C@@H](Cc2ccc3ccccc3c2)NC(=O)[C@H](CCCNC(=N)N)NC(=O)[C@H](CCCNC(=N)N)NC(=O)[C@@H](CCCNC(=N)N)NC(=O)[C@@H](C(C)C)NC(=O)[C@H](C(C)(C)C)NC(=O)[C@H](Cc2c[nH]c3ccccc23)NC(=O)[C@H](CCC(N)=O)NC1=O` [Cyclorasin 9A53, (Trp-Tle-val-arg-Arg-Arg-nal-Arg-Fpa-nle-Gln)] (cyclo(W[Tle][dV][dR]RR[d2Nal]R[Phe(4-F)][dNle]Q)), the IC50 was 27 ± 11 nM.
`CCCC[C@H]1NC(=O)[C@H](Cc2ccc(F)c(F)c2)NC(=O)[C@H](CCCNC(=N)N)NC(=O)[C@@H](Cc2ccc3ccccc3c2)NC(=O)[C@H](CCCNC(=N)N)NC(=O)[C@H](CCCNC(=N)N)NC(=O)[C@H](CCCNC(=N)N)NC(=O)[C@@H](C(C)C)NC(=O)[C@H](C(C)(C)C)NC(=O)[C@H](Cc2c[nH]c3ccccc23)NC(=O)[C@H](CCC(N)=O)NC1=O` [Cyclorasin 9A54, (Trp-Tle-val-Arg-Arg-Arg-nal-Arg-Phe(3,4-difluoro)-nle-Gln)] (cyclo(W[Tle][dV]RRR[d2Nal]R[Phe(3,4-F2)][dNle]Q)) showed an IC50 of 18 nM.
With `CCCC[C@H]1NC(=O)[C@H](Cc2ccc(F)cc2)NC(=O)[C@H](CCCNC(=N)N)NC(=O)[C@H](Cc2ccc3ccccc3c2)NC(=O)[C@H](CCCNC(=N)N)NC(=O)[C@H](CCCNC(=N)N)NC(=O)[C@H](CCCNC(=N)N)NC(=O)[C@@H](C)NC(=O)[C@H]([C@@H](C)O)NC(=O)[C@H](Cc2c[nH]c3ccccc23)NC(=O)[C@H](CCC(N)=O)NC1=O` [Cyclorasin 9A55, (Trp-Thr-ala-Arg-Arg-Arg-Nal-Arg-Fpa-nle-Gln)] (cyclo(WT[dA]RRR[2Nal]R[Phe(4-F)][dNle]Q)) the IC50 was 940 ± 280 nM.
`CCCC[C@H]1NC(=O)[C@H](Cc2ccc(F)cc2)NC(=O)[C@H](CCCNC(=N)N)NC(=O)[C@@H](Cc2ccc3ccccc3c2)NC(=O)[C@H](CCCNC(=N)N)NC(=O)[C@H](C)NC(=O)[C@H](CCC(=O)N[C@@H](CCCCN)C(N)=O)NC(=O)[C@@H](C)NC(=O)[C@H]([C@@H](C)O)NC(=O)[C@H](Cc2c[nH]c3ccccc23)NC(=O)[C@@H](CO)NC1=O` [Cyclorasin 9A(Arg1A), (Ala-Arg-nal-Arg-Fpa-nle-ser-Trp-Thr-ala-Gln)-Lys] (cyclo(AR[d2Nal]R[Phe(4-F)][dNle][dS]WT[dA]E([Lys-NH2]))) gave an IC50 of 1300 ± 200 nM.
Compound `CCCC[C@H]1NC(=O)[C@H](Cc2ccc(F)cc2)NC(=O)[C@H](CCCNC(=N)N)NC(=O)[C@@H](Cc2ccc3ccccc3c2)NC(=O)[C@H](C)NC(=O)[C@H](CCCNC(=N)N)NC(=O)[C@H](CCC(=O)N[C@@H](CCCCN)C(N)=O)NC(=O)[C@@H](C)NC(=O)[C@H]([C@@H](C)O)NC(=O)[C@H](Cc2c[nH]c3ccccc23)NC(=O)[C@@H](CO)NC1=O` [Cyclorasin 9A(Arg2A), (Arg-Ala-nal-Arg-Fpa-nle-ser-Trp-Thr-ala-Gln)-Lys] (cyclo(RA[d2Nal]R[Phe(4-F)][dNle][dS]WT[dA]E([Lys-NH2]))) has an IC50 of 940 ± 290 nM.
With `CCCC[C@H]1NC(=O)[C@H](Cc2ccc(F)cc2)NC(=O)[C@H](C)NC(=O)[C@@H](Cc2ccc3ccccc3c2)NC(=O)[C@H](CCCNC(=N)N)NC(=O)[C@H](CCCNC(=N)N)NC(=O)[C@H](CCC(=O)N[C@@H](CCCCN)C(N)=O)NC(=O)[C@@H](C)NC(=O)[C@H]([C@@H](C)O)NC(=O)[C@H](Cc2c[nH]c3ccccc23)NC(=O)[C@@H](CO)NC1=O` [Cyclorasin 9A(Arg4A), (Arg-Arg-nal-Ala-Fpa-nle-ser-Trp-Thr-ala-Gln)-Lys] (cyclo(RR[d2Nal]A[Phe(4-F)][dNle][dS]WT[dA]E([Lys-NH2]))) the IC50 was 390 ± 280 nM.
With `CCCC[C@H]1NC(=O)[C@H](C)NC(=O)[C@H](CCCNC(=N)N)NC(=O)[C@@H](Cc2ccc3ccccc3c2)NC(=O)[C@H](CCCNC(=N)N)NC(=O)[C@H](CCCNC(=N)N)NC(=O)[C@H](CCC(=O)N[C@@H](CCCCN)C(N)=O)NC(=O)[C@@H](C)NC(=O)[C@H]([C@@H](C)O)NC(=O)[C@H](Cc2c[nH]c3ccccc23)NC(=O)[C@@H](CO)NC1=O` [Cyclorasin 9A(Fpa5A), (Arg-Arg-nal-Arg-Ala-nle-ser-Trp-Thr-ala-Gln)-Lys] (cyclo(RR[d2Nal]RA[dNle][dS]WT[dA]E([Lys-NH2]))) the IC50 was greater than 10000 nM.
With `CCCC[C@H]1NC(=O)[C@H](Cc2ccc(F)cc2)NC(=O)[C@H](CCCNC(=N)N)NC(=O)[C@@H](Cc2ccc3ccccc3c2)NC(=O)[C@H](CCCNC(=N)N)NC(=O)[C@H](CCCNC(=N)N)NC(=O)[C@H](CCC(=O)N[C@@H](CCCCN)C(N)=O)NC(=O)[C@@H](C)NC(=O)[C@H](C)NC(=O)[C@H](Cc2c[nH]c3ccccc23)NC(=O)[C@@H](CO)NC1=O` [Cyclorasin 9A(Thr9A), (Arg-Arg-nal-Arg-Fpa-nle-ser-Trp-Ala-ala-Gln)-Lys] (cyclo(A[dA]E([Lys-NH2])RR[d2Nal]R[Phe(4-F)][dNle][dS]W)) the IC50 was greater than 10000 nM.
`CCCC[C@H]1NC(=O)[C@H](Cc2ccc(F)cc2)NC(=O)[C@H](CCCNC(=N)N)NC(=O)[C@@H](Cc2ccc3ccccc3c2)NC(=O)[C@H](CCCNC(=N)N)NC(=O)[C@H](CCCNC(=N)N)NC(=O)[C@H](CCC(=O)N[C@@H](CCCCN)C(N)=O)NC(=O)[C@@H](C)NC(=O)[C@H]([C@@H](C)O)NC(=O)[C@H](C)NC(=O)[C@@H](CO)NC1=O` [Cyclorasin 9A(Trp8A), (Arg-Arg-nal-Arg-Fpa-nle-ser-Ala-Thr-ala-Gln)-Lys] (cyclo(RR[d2Nal]R[Phe(4-F)][dNle][dS]AT[dA]E([Lys-NH2]))) showed an IC50 of 7200 ± 1000 nM.
With `C[C@H]1NC(=O)[C@H](Cc2ccc(F)cc2)NC(=O)[C@H](CCCNC(=N)N)NC(=O)[C@@H](Cc2ccc3ccccc3c2)NC(=O)[C@H](CCCNC(=N)N)NC(=O)[C@H](CCCNC(=N)N)NC(=O)[C@H](CCC(=O)N[C@@H](CCCCN)C(N)=O)NC(=O)[C@@H](C)NC(=O)[C@H]([C@@H](C)O)NC(=O)[C@H](Cc2c[nH]c3ccccc23)NC(=O)[C@@H](CO)NC1=O` [Cyclorasin 9A(nle6dA), (Arg-Arg-nal-Arg-Fpa-ala-ser-Trp-Thr-ala-Gln)-Lys] (cyclo(RR[d2Nal]R[Phe(4-F)][dA][dS]WT[dA]E([Lys-NH2]))) the IC50 was 7700 ± 5600 nM.
`CCCC[C@H]1NC(=O)[C@H](Cc2ccc(F)cc2)NC(=O)[C@H](CCCNC(=N)N)NC(=O)[C@@H](Cc2ccc3ccccc3c2)NC(=O)[C@H](CCCNC(=N)N)NC(=O)[C@H](CCCNC(=N)N)NC(=O)[C@H](CCC(=O)N[C@@H](CCCCN)C(N)=O)NC(=O)[C@@H](C)NC(=O)[C@H]([C@@H](C)O)NC(=O)[C@H](Cc2c[nH]c3ccccc23)NC(=O)[C@@H](C)NC1=O` [Cyclorasin 9A(ser7dA), (Arg-Arg-nal-Arg-Fpa-nle-ala-Trp-Thr-ala-Gln)-Lys] (cyclo(RR[d2Nal]R[Phe(4-F)][dNle][dA]WT[dA]E([Lys-NH2]))) was tested, and the IC50 was 770 ± 490 nM.

Same assay, conditions: relative to parent 9A5/9A6
For `C[C@H]1NC(=O)[C@H]([C@@H](C)O)NC(=O)[C@H](Cc2c[nH]c3ccccc23)NC(=O)[C@H](CCC(N)=O)NC(=O)[C@@H](CCCNC(=N)N)NC(=O)[C@H](Cc2ccc(F)cc2)NC(=O)[C@H](CCCNC(=N)N)NC(=O)[C@@H](Cc2ccc3ccccc3c2)NC(=O)[C@H](CCCNC(=N)N)NC(=O)[C@H](CCCNC(=N)N)NC(=O)[C@H](CCCNC(=N)N)NC1=O` [Cyclorasin 9A45, (Trp-Thr-ala-Arg-Arg-Arg-nal-Arg-Fpa-arg-Gln)] (cyclo(WT[dA]RRR[d2Nal]R[Phe(4-F)][dR]Q)), the “increase in Ras binding affinity upon residue substitution” value was 4 fold.
